Consider one molecule from patent US20240122912A1, “A NANOFORMULATION FOR GLIOMA TREATMENT AND PROCESS FOR ITS PREPARATION THEREOF” (COUNCIL OF SCIENTIFIC AND INDUSTRIAL RESEARCH, priority 2021, published 2024).

The test system of one data set is CHO, HEK293. Description: MTT cytotoxicity assay in non-cancer cells. It is filed as cell-based. The following applies: same concentration ranges.
In another data set the test system is orthotopic GL261 glioma. Description: Orthotopic glioma model: survivability and tumor lesions. The class given is in vivo, C57BL/6J mice. The following applies: 5 injections, sacrificed on 12th day; H8 8 mg/Kg. The source says:
Further, to observe the orthotopic brain tumor growth inhibitory efficiency of presently described SR-targeting CH8, we checked survivability among brain tumor-bearing mice following 5 alternate dosing of various treatment groups. Herein, the intraperitoneal injections started on 4th day until 12th day (total 5 injections) since stereotactic-based inoculation of GL261 cells in brain. […] In another set of experiment, animals bearing brain in situ GL261 cells and having 5 injections of various treatments were sacrificed on 12th day to visualize the status of tumor lesions in full brains obtained from respective treatment groups. […] Clearly, the visual effect of respective treatments has reflected on overall survivability of treated mice.

Turning to `O=C(CCCN1CCC(O)(c2ccc(Cl)cc2)CC1)c1ccc(F)cc1` [H8], the “Cytotoxic effects in non-cancer cells” value in the data set with CHO, HEK293 is “negligible”. In addition, the “Tumor sites / lesions in isolated brains” value with orthotopic GL261 glioma is given as “comparable effect on tumor sites”.
